In patent US11439696B2, “Modulation of proprotein convertase subtilisin/kexin 9 expression (PCSK9) with HSP 27 and/or HSP25” (PEMI31 Therapeutics Inc., priority 2015, dated 2022):
Values joined by “and” are separate entries in the source; they are usually repeats but may differ in a detail not shown here. Equal entries are not always repeated.

Assays:
[1] = Stability of HSP27 in human serum at −20° C. (MRM-MS); format: physicochemical; conditions: two representative human sera, 3 weeks storage at −20° C. (FIG. 7E)
Experimental: The assay was fully validated according to the U.S. Food and Drug Administration (FDA) Bioanalytical method validation guideline (www.fda.dov/downloads/Drugs/GuidanceComplianceRegulatoryInformation/Guidances/UCM070107). Nine calibration standards of trypsin-digested recombinant HSP27 were prepared by serial dilution in concentrations of 1000; 500; 250; 125; 62.5; 31.25; 15.625; 7.8 and 0 ng/ml. The limit of detection (LOD) was calculated as the smallest detectable peak above baseline noise (signal-to-noise ratio>3:1). Calculating target peptide: AQUA peptide ratios of the peak area for each concentration level. Standard curves were constructed by linear regression analysis by excel. The same samples were analyzed 7 times and the repeatability was compared. Extraction efficiency and recovery were performed by comparing concentrations between samples without and with standard rHSP27. Matrix effect was assessed using double dilution test for the linearity when serum samples were 1, 2, 4 and 8 times diluted. Parallelism test was also applied to estimate matrix effect. Stability of HSP27 in human serum was estimated for 21 days at −20° C.

PCSK9 mRNA = PCSK9 mRNA expression in HepG2 (liver) cells by quantitative RT-PCR; format: cell-based; conditions: HepG2 (FIG. 14)
PCSK9 [2] = test: PCSK9 secretion from HepG2 (liver) cells with increasing doses of Atorvastatin; format: cell-based; conditions: HepG2, increasing doses of AV (FIG. 12)
Experimental: […] At the end of incubation period, the medium was removed and centrifuged at 4,000 rpm for 10 min at 4° C. to remove a small amount of residual cells and debris. The supernatant fraction was stored at 4° C. until analyzed.
Total cell or tissue lysates were prepared in lysis buffer (20 mM Tris-Hcl pH8.0, 150 mM NaCl, 0.1% SDS, 0.1 mM PMSF). Lysates were cleared by centrifugation at 4° C., 12,000 rpm for 10 min, and protein concentrations were determined using the Bradford protein assay with BSA as the standard. Samples (30 μl culture medium, 50 μg for cell and 25 μg for liver) were separated by SDS-PAGE under reducing conditions, transferred to IMMOBILON® PVDF (IMMOBILON is a registered trademark of Millipore Corp.) using IBLOT® Dry Blotting System (Life Technologies; IBLOT is a registered trademark of Invitrogen Corp., Carlsbad, Calif., USA) and subsequently membranes were immunoblotted with the following antibodies: LDL-R (Santa Cruz, 1:1000) and PCSK9 (Santa Cruz, 1:1000); β-Actin (Santa Cruz, 1:1000) was used as the loading control. Appropriate secondary HRP-conjugated antibodies were used prior to visualization by enhanced chemiluminescence (ECL, Life technologies).

LDL-Receptor = test: Western blot (relative densitometry) of LDL-Receptor expression in HepG2 (liver) cells; format: cell-based; conditions: HepG2 (liver) cells treated for 6 h (FIG. 16)
Experimental: (§1) HepG2 cells (0.5×10^6 cells/60 mm well) were incubated on H-Glucose DMEM medium containing 10% FBS and 1×penicillin/streptomycin in the presence or absence of rHsp27 (200 μg) for specified time periods at 37° C. At the end of incubation period, the medium was removed and centrifuged at 4,000 rpm for 10 min at 4° C. to remove a small amount of residual cells and debris. The supernatant fraction was stored at 4° C. until analyzed.
(§2) Meanwhile, cells were washed three times with cold PBS, scraped off the dishes (after the addition of 1 ml lysis buffer (20 mM Tris-HCl; pH 8.0; 150 mM NaCl; 0.1 mM PMSF), and sonicated; whole cell lysates were then stored at −20° C. until use.
(§3) Total cell or tissue lysates were prepared in lysis buffer (20 mM Tris-Hcl pH8.0, 150 mM NaCl, 0.1% SDS, 0.1 mM PMSF). Lysates were cleared by centrifugation at 4° C., 12,000 rpm for 10 min, and protein concentrations were determined using the Bradford protein assay with BSA as the standard. […]

PCSK9 [3] = test: Western blot (relative densitometry) of PCSK9 expression in HepG2 (liver) cells; format: cell-based; conditions: HepG2 (liver) cells treated for 1 h (FIG. 15)
Experimental: as §1, §2, §3
HepG2 cells in the 6-well plates were washed twice with phosphate-buffered saline and lifted by pipette with 1 ml PBS. […] The membrane fraction was re-suspended in PBS by sonication and the protein concentration was determined by Bradford reagent (Sigma). […] Signals on the membrane were visualized by chemi-luminescence of HRP substrate.

LDL-Receptor (LDL-R) = test: LDL-Receptor fluorescent immunolabelling of HepG2 (liver) cells; format: cell-based; conditions: HepG2, 17β-estradiol 100 nM or rHSP27 100 μg overnight (16 hours) (FIG. 17)
Experimental: HepG2 cells (10^5 cells) were seeded in SPL Coverglass sterile dish 35×10 mm (Bio Lab) for 2 days. Cells were then treated with 17β-estradiol (100 nM) or rHSP27 (100 μg) overnight (16 hours). After washing, cells were fixed in 4% paraformaldehyde, permeabilized in 0.5% (v/v) Triton x-100 for 10 minutes, washed, blocked in 10% horse serum (1 hour), washed, then incubated in primary antibody rabbit monoclonal to LDL-R (Ab52818; ABCAM; 1:100) 4° C. overnight. After washing, cells were incubated in secondary antibody fluorescein goat Anti-Rabbit IgG antibody (FI-1000; Vector Laboratories; 1:100) for 30 min at room temperature, then mounted with mounting medium with DAPI (VectaShield Antifade Mounting Medium with DAPI; Vector Labs H-1200) for at least 24 hour in the dark before visualization. Various controls were used, and included: (i) absence of the Triton treatement, and (ii) omitting the primary or secondary antibodies used for immunolabelling. Immunofluorescence 10^5 cells were seeded ina SPL coverglass sterile dish 35×10 mm (Bio Lab) for 2 days. The cells were then treated with 17 β-estradiol (100 nM) or rHSP27 (100 μg) overnight (16 hours). […] Mounted with mounting medium with DAPI (VectaShield Antifade Mounting Medium with DAPI; Vector Labs H-1200) for at least 24 hour in the dark before visualization with fluorescence microscopy.

Molecule: endogenous HSP27: endogenous heat shock protein 27 in human serum samples, measured by MRM-MS
- endogenous HSP27 remaining after storage [1]: 111+6 % of fresh sera and 87+5 % of fresh sera

Molecule: CC(C)c1c(C(=O)Nc2ccccc2)c(-c2ccccc2)c(-c2ccc(F)cc2)n1CC[C@@H](O)C[C@@H](O)CC(=O)O [AV, Atorvastatin]
- PCSK9 expression (mRNA) on treatment with AV (PCSK9 mRNA): increase
- secretion of PCSK9 (PCSK9 [2]): dose-dependent secretion

Molecule: C[C@]12CC[C@@H]3c4ccc(O)cc4CC[C@H]3[C@@H]1CC[C@@H]2O [17 β-estradiol]
- increase in LDL-Receptor expression (LDL-Receptor): 116%
- reduction in PCSK9 expression (PCSK9 [3]): 28%
- LDL-R signal (LDL-Receptor (LDL-R)): increased
